Results from patent US8247211B2, “Glycopeptide antibiotics” (American Cyanamid Company, priority 2001, dated 2012).
In brackets after ≈: the same amount, converted by molar mass.

How the values were obtained:
Test in all cases: In vitro antibacterial evaluation: minimum inhibitory concentration (MIC), broth dilution method
Format in all cases: cell-based
Enterococcus sp. = conditions: broth dilution, 5×10^5 CFU/mL, 18 hours at 35° C.
Procedure, shortened: (§1)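 First, organisms are seeded at 5×10^5 CFU/mL into Muller-Hinton II […]. Next, antibiotic is applied across 64-0.06 μg/mL by broth dilution (NCCLS M7-A2). Finally, the lowest inhibitory concentration is recorded as MIC.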

Escherichia coli = conditions: 5×10^5 CFU/mL, 18 hours at 35° C.
Procedure, shortened: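 NCCLS M7-A2 broth dilution; Muller-Hinton II […]; 5×10^5 CFU/mL; 64-0.06 μg/mL. MIC = lowest concentration with no growth.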

Staphylococcus sp. = conditions: for MIC Staphylococcus aureus-SMITH (GC 4543): strain GC 4543; for MIC Staphylococcus haemolyticus (GC 4546): strain GC 4546; for MIC Coagulase Negative Staphylococcus (GC 4547): strain GC 4547; for MIC Coagulase Negative Staphylococcus (GC 4548): strain GC 4548; for MIC Coagulase Negative Staphylococcus (GC 4549): strain GC 4549; for MIC Coagulase Negative Staphylococcus (GC 4551): strain GC 4551
Procedure, shortened: as §1

Streptococcus sp. = conditions: broth dilution, 5×10^5 CFU/mL, 18 hours at 35° C.
Procedure, shortened: as §1

[1] = broth dilution, 18 hours at 35° C.

Compound: N=C1NCC(C(O)C2NC(=O)C(Cc3ccc(OC4OC(CO)C(OC5OC(CO)C(O)C6OC7(OC56)C5CC6CC(C5)CC7C6)C(O)C4O)cc3)NC(=O)C(CC3CCCCC3)NC(=O)CNC(=O)C(CO)NC(=O)C(C(O)C3CNC(=N)N3C3OC(CO)C(O)C(O)C3O)NC2=O)N1 (stereo not shown) [Example 106a, Cyclo[3-cyclohexylalanyl-O-[4-O-[2,3-O-(2-adamantylidene)hexopyranosyl]hexopyranosyl]-tyrosyl-3-(2-iminoimidazolidin-4-yl)seryl-3-(3-hexopyranosyl-2-iminoimidazolidin-4-yl)-serylserylglycyl]]
- MIC Enterococccus avium (GC 4558) (Enterococcus sp.): 4 µg/mL (≈ 2.82 µM)
- MIC Enterococccus faecalis (ATCC 29212) (Enterococcus sp.): 8 µg/mL (≈ 5.64 µM)
- MIC Enterococccus faecalis (GC 2691) (Enterococcus sp.): 4 µg/mL (≈ 2.82 µM)
- MIC Enterococccus faecalis (GC 3059) (Enterococcus sp.): 8 µg/mL (≈ 5.64 µM)
- MIC Enterococccus faecalis (GC 4552) (Enterococcus sp.): 4 µg/mL (≈ 2.82 µM)
- MIC Enterococccus faecalis (GC 4553) (Enterococcus sp.): 4 µg/mL (≈ 2.82 µM)
- MIC Enterococccus faecalis (GC 4554) (Enterococcus sp.): 8 µg/mL (≈ 5.64 µM)
- MIC Enterococccus faecalis (GC 6189) (Enterococcus sp.): 4 µg/mL (≈ 2.82 µM)
- MIC Enterococccus faecium (GC 2243) (Enterococcus sp.): 4 µg/mL (≈ 2.82 µM)
- MIC Enterococccus faecium (GC 4556) (Enterococcus sp.): 8 µg/mL (≈ 5.64 µM)
- MIC Enterococccus faecium (GC 4557) (Enterococcus sp.): 2 µg/mL (≈ 1.41 µM)
- MIC Enterococcus faecalis (GC 2242) (Enterococcus sp.): 4 µg/mL (≈ 2.82 µM)
- MIC Escherichia coli (ATCC 25922) (Escherichia coli): 32 µg/mL (≈ 22.5 µM)
- MIC Escherichia coli (GC 4559) (Escherichia coli): 32 µg/mL (≈ 22.5 µM)
- MIC Escherichia coli (GC 4560) (Escherichia coli): 2 µg/mL (≈ 1.41 µM)
- MIC Staphylococcus aureus (ATCC 29213) (Staphylococcus sp.; strain ATCC 29213): 2 µg/mL (≈ 1.41 µM)
- MIC Staphylococcus aureus (GC 1131) (Staphylococcus sp.; strain GC 1131): 2 µg/mL (≈ 1.41 µM)
- MIC Staphylococcus aureus (GC 3051) (Staphylococcus sp.; strain GC 3051): 2 µg/mL (≈ 1.41 µM)
- MIC Staphylococcus aureus (GC 3053) (Staphylococcus sp.; strain GC 3053): 2 µg/mL (≈ 1.41 µM)
- MIC Staphylococcus aureus (GC 4541) (Staphylococcus sp.; strain GC 4541): 2 µg/mL (≈ 1.41 µM)
- MIC Staphylococcus aureus (GC 4542) (Staphylococcus sp.; strain GC 4542): 2 µg/mL (≈ 1.41 µM)
- MIC Staphylococcus aureus-SMITH (GC 4543) (Staphylococcus sp.; 18 hours at 35° C.): 2 µg/mL (≈ 1.41 µM)
- MIC Staphylococcus aureus-SMITH (GC 4543) (Staphylococcus sp.; [1]): 2 µg/mL (≈ 1.41 µM)
- MIC Staphylococcus aureus (GC 4544) (Staphylococcus sp.; strain GC 4544): 4 µg/mL (≈ 2.82 µM)
- MIC Staphylococcus aureus (GC 4545) (Staphylococcus sp.; strain GC 4545): 2 µg/mL (≈ 1.41 µM)
- MIC Staphylococcus haemolyticus (GC 4546) (Staphylococcus sp.): 2 µg/mL (≈ 1.41 µM)
- MIC Staphylococcus haemolyticus (GC 4546) (Staphylococcus sp.; [1]): 2 µg/mL (≈ 1.41 µM)
- MIC Coagulase Negative Staphylococcus (GC 4547) (Staphylococcus sp.): 2 µg/mL (≈ 1.41 µM)
- MIC Coagulase Negative Staphylococcus (GC 4547) (Staphylococcus sp.; [1]): 2 µg/mL (≈ 1.41 µM)
- MIC Coagulase Negative Staphylococcus (GC 4548) (Staphylococcus sp.): 1 µg/mL (≈ 0.704 µM)
- MIC Coagulase Negative Staphylococcus (GC 4548) (Staphylococcus sp.; [1]): 1 µg/mL (≈ 0.704 µM)
- MIC Coagulase Negative Staphylococcus (GC 4549) (Staphylococcus sp.): 1 µg/mL (≈ 0.704 µM)
- MIC Coagulase Negative Staphylococcus (GC 4549) (Staphylococcus sp.; [1]): 1 µg/mL (≈ 0.704 µM)
- MIC Coagulase Negative Staphylococcus (GC 4551) (Staphylococcus sp.): 2 µg/mL (≈ 1.41 µM)
- MIC Coagulase Negative Staphylococcus (GC 4551) (Staphylococcus sp.; [1]): 2 µg/mL (≈ 1.41 µM)
- MIC Streptococcus agalactiae (GC 4564) (Streptococcus sp.): 0.25 µg/mL (≈ 0.176 µM)
- MIC Streptococcus pneumoniae (GC 1894) (Streptococcus sp.): <0.06 µg/mL
- MIC Streptococcus pneumoniae (GC 4565) (Streptococcus sp.): <0.06 µg/mL
- MIC Streptococcus pneumonine (ATCC 6301) (Streptococcus sp.): 0.12 µg/mL (≈ 0.0845 µM)
- MIC Streptococcus pyogenes (GC 4563) (Streptococcus sp.): 0.25 µg/mL (≈ 0.176 µM)
